Measured values from publication PMC9767876, “Development of a robust and convenient dual-reporter high-throughput screening assay for SARS-CoV-2 antiviral drug discovery” (Antiviral Research, 2023).
Where two headings read alike, the source gives them in different places.

Key:
[1] = test system: SARS-CoV-2_mNeonGreen virus (Wuhan strain); assay: microbe, parasite or virus in culture; format: cell-based; details: for EC50: read-out: EC50 Mean ± SD (antiviral activity)
in vitro = details: human
[2] = test system: A549+hACE2+hTMPRSS2_mCherry cells
[3] = Severe acute respiratory syndrome coronavirus 2

Structure (SMILES)	EC50 [1, 3] [nM]	CC50 (in vitro) [nM]	EC50 [1] [nM]	selectivity index (SI) [1]	CC50 [2] [nM]
C/C=C/C[C@@H](C)[C@@H](O)[C@H]1C(=O)N[C@@H](CC)C(=O)N(C)[C@H](C)C(=O)N(CC)[C@@H](C(C)C)C(=O)N[C@@H](C(C)C)C(=O)N(C)[C@@H](CC(C)C)C(=O)N[C@@H](C)C(=O)N[C@H](C)C(=O)N(C)[C@@H](CC(C)C)C(=O)N(C)[C@@H](CC(C)C)C(=O)N(C)[C@@H](C(C)C)C(=O)N1C [Alisporivir]	1460 ± 130	23800 ± 4750			
CCn1c(CO)nn(-c2cc(O[C@@H](C)C(F)(F)F)c(C(=O)Nc3c(F)cccc3Cl)cc2F)c1=O [BAY-2402234]			5 ± 1		
CN(C)C(=O)COC(=O)Cc1ccc(OC(=O)c2ccc(NC(=N)N)cc2)cc1 [Camostat]	> 50000	> 50000			
Cn1cnc(Cn2c(=O)[nH]/c(=N\c3cc4cn(C)nc4cc3Cl)n(Cc3cc(F)c(F)cc3F)c2=O)n1 [Ensitrelvir]	260 ± 43	> 50000			
N#C[C@@]1(c2ccc3c(N)ncnn23)O[C@H](CO)[C@@H](O)[C@H]1O [GS-441524]	1660 ± 420	> 50000		> 30	
CC(C)C(=O)OC[C@H]1O[C@@H](n2ccc(NO)nc2=O)[C@H](O)[C@@H]1O [Molnupiravir]	1260 ± 230	> 50000			
CC(C)(C)[C@H](NC(=O)C(F)(F)F)C(=O)N1C[C@H]2[C@@H]([C@H]1C(=O)N[C@H](C#N)C[C@@H]1CCNC1=O)C2(C)C [Nirmatrelvir]	120 ± 17	> 50000			
COc1cccc2[nH]c(C(=O)N[C@@H](CC(C)C)C(=O)N[C@@H](C[C@@H]3CCNC3=O)C(=O)CO)cc12 [PF-00835231]			430 ± 80	> 115	> 50000
CCC(CC)COC(=O)[C@H](C)N[P@](=O)(OC[C@H]1O[C@@](C#N)(c2ccc3c(N)ncnn23)[C@H](O)[C@@H]1O)Oc1ccccc1 [Remdesivir]	40 ± 5	> 50000			
